# According to patent US9315563B2, “Peptides that inhibit angiotensin converting enzyme and peptides with antioxidant activity purified from ovotransferrin and methods of producing and using the same” (The Governors of the University of Alberta, priority 2009, dated 2016):
# “And” between values parts separate entries of the source, which are not always exact repeats. Equal values may be shown once.
# Experiment: ORAC-FL assay (oxygen radical absorbance capacity)
# Conditions: for ORAC: chemically synthesized peptides, Trolox equivalent; for Change of antioxidant activity on extension of the peptide: ORAC, relative to GWNI, WNIP or AGWNIP; for ORAC value (sign, in words): suggesting prooxidant activity
# Protocol: Briefly, 80 mM AAPH and 200 nM fluorescein in 75 mM phosphate buffer at pH 7.4 were prepared for each experiment. For each run, 20 μL of antioxidant, and 80 μL of phosphate buffer (or 100 μL of Trolox standard solutions at final concentrations of 1 to 8 μM) were placed in wells of a 96-well microplate, followed by addition of 50 μL of the fluorescein solution. The mixture was preincubated for 15 min at 37° C. 50 μL of AAPH solution was added rapidly using a multichannel pipet. The microplate was immediately placed in a Fluoroskan Ascent microplate reader (Thermo Electron Corporation) with 485-P excitation and 538-P emission filters and the fluorescence recorded every minute for 100 min. All readings were recorded using Fluoroskan Ascent software. The area under the curve of fluorescence decay (AUC) was calculated using Graphpad prism software (trial version). Regression equations between AUC and antioxidant concentrations were calculated for all the samples. The ORAC value was calculated by dividing the slope of sample regression curve by the slope of Trolox regression curve. Final ORAC values were expressed as μmol of Trolox equivalent/mg of protein or peptide.
Compound,ORAC,Change of antioxidant activity on extension of the peptide,"ORAC value (sign, in words)"
"Oc1cc(O)c2c(c1)O[C@H](c1ccc(O)c(O)c1)[C@@H](O)C2 [(+)-catechin, reference compound]",14.9 μmol/μmol,–,–
AGWNI,8.55 ± 0.60 μmol/μmol,decreased the antioxidant activity by half,–
AGWNIP,7.64 ± 0.83 μmol/μmol,decreased the antioxidant activity by half,–
AGWNIPIGT,5.25 ± 0.26 μmol/μmol,did not decrease the antioxidant activity further,–
AIEWEGIESGSVEQA,0.95 ± 0.46 μmol/μmol,–,–
GWNI,13.90 μmol/μmol and 13.90 ± 1.05 μmol/μmol,–,–
GWNIP,6.19 ± 0.64 μmol/μmol,decreased the antioxidant activity by half,–
IAAEVYEHTEGSTTSY,2.39 ± 0.17 μmol/μmol,–,–
IANNEADAISLDGGQVFEAG,0.43 ± 0.05 μmol/μmol,–,–
IEWEGIESGSVEQA,0.73 ± 0.16 μmol/μmol,–,–
LGFEY,9.79 ± 0.55 μmol/μmol,–,–
LGFEYY,7.25 ± 0.71 μmol/μmol,–,–
LSKAQSDFG,−1.40 ± 0.69 μmol/μmol,–,negative ORAC values
LVEKGDVAFI,−0.07 ± 0.03 μmol/μmol,–,negative ORAC values
PIAAEVYEHTEGSTTSY,1.68 ± 0.03 μmol/μmol,–,–
VIPMGL,2.89 ± 0.15 μmol/μmol,–,–
WNIP,15.47 μmol/μmol and 15.47 ± 0.68 μmol/μmol,–,–
